The values below are quoted from earlier work in PMC11946513, “Modulation of the substrate preference of a MYST acetyltransferase by a scaffold protein” (The Journal of Biological Chemistry, 2025).

The structures appear in SMILES notation. pKi: −log10 of the molar value.

In the series the target is KAT6A MYST domain. Particulars: binding to the KAT6A MYST domain; acetyl-CoA competitive; read-out: inhibition constant (Ki). As to the method: The active enzyme concentration for each form of KAT6A was obtained through tight-binding inhibition ([48]) by PF-9363, which binds to the KAT6A MYST domain with an inhibition constant (Ki) of ≈0.3 nM ([6]).

On to `COc1cccc(OC)c1S(=O)(=O)Nc1noc2cc(Cn3cccn3)cc(OC)c12` [PF-9363], for which the pKi is roughly 9.52.
